{"source": "patent US6924309B2", "about": "(Children, Youth and Women's Health Service Incorporated, priority 1999, dated 2005)", "key": {"human neutrophils": {"system": "human neutrophils", "test": "Neutrophil lucigenin dependent chemiluminescence (superoxide production)", "type": "cell-based", "settings": "20 μM", "experimental": "The activation of human neutrophils by nitro compounds was assessed by the ability to stimulate superoxide production (chemiluminescence response) and release of lysosomal enzymes from specific and azurophilic granules. Neutrophils were prepared from whole blood taken from normal healthy volunteers by the rapid-single step procedure^(41). Briefly, blood anticoagulated with heparin was carefully layered on a hypaque-ficoll medium of 1.114 g/ml and centrifuged in swing-out-buckets at 200 g/30 min. The leukocytes were resolved into two bands and the erythrocytes sedimented at the bottom of the tube. The second leukocyte band approximately 0.7 cm from the mononuclear cell containing band at the interface contained neutrophils of >98% purity and >99% viability (trypan blue dye exclusion criteria). The neutrophils were carefully harvested with a pasteur pipette, and washed and resuspended in tissue culture medium. The respiratory burst response of neutrophils was assessed by measuring superoxide production by the lucigenin dependent chemiluminescence assay essentially as described previously^(42). Briefly, 1×10^6 neutrophils (100 μl) in HBSS were treated with the nitro analogues of fatty acids (100 μl), then lucigenin was added and the volume made up. FIG. 7 illustrates the effects of Lx compounds on the neutrophil chemiluminescence reponse. Results are the means ±SEM of 4-12 experiments. […]"}, "[1]": {"system": "Plasmodium falciparum isolates 3D7, FC27, K+", "test": "Radiometric (3H-hypoxanthine) assay on asexual blood stages of P. falciparum", "type": "cell-based", "method_in_brief": "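Isolates grown in human O+ erythrocytes with 10% AB serum at 37 °C; cultures at 1×10^8 erythrocytes/ml were exposed to the fatty acids for 4 h, then pulsed with 3H-hypoxanthine for a further 18 h. Incorporated radioactivity was counted and expressed as % growth inhibition versus diluent-treated cultures.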"}, "5-LO": {"system": "5-LO", "test": "5-LO catalysed oxidation of the nitro compounds (substrate test)", "type": "biochemical", "settings": "pH 6.3 buffer, UV 234 nm", "experimental": "Based on this consideration, 5-LO, 12-LO and 15-LO catalysed oxidation of the nitro compounds (4a, 4b, 6a, 6b, 8a and 8b) was investigated. Each of the nitro compounds was treated with 15-LO in pH 9.0 buffer (or 5-LO in pH 6.3 buffer and 12-LO in pH 7.4 buffer), and the formation of 15-hydroperoxy derivatives (or 5-hydroperoxy or 12-hydroperoxy derivatives) over time was monitored by UV spectroscopy at 234 nm."}, "15-LO": {"target": "T1, 15-LO (Glycine max, UniProt P08170)", "T1 construct": "purchased Sigma Chemical Company", "T1 sequence (P08170 1-839)": "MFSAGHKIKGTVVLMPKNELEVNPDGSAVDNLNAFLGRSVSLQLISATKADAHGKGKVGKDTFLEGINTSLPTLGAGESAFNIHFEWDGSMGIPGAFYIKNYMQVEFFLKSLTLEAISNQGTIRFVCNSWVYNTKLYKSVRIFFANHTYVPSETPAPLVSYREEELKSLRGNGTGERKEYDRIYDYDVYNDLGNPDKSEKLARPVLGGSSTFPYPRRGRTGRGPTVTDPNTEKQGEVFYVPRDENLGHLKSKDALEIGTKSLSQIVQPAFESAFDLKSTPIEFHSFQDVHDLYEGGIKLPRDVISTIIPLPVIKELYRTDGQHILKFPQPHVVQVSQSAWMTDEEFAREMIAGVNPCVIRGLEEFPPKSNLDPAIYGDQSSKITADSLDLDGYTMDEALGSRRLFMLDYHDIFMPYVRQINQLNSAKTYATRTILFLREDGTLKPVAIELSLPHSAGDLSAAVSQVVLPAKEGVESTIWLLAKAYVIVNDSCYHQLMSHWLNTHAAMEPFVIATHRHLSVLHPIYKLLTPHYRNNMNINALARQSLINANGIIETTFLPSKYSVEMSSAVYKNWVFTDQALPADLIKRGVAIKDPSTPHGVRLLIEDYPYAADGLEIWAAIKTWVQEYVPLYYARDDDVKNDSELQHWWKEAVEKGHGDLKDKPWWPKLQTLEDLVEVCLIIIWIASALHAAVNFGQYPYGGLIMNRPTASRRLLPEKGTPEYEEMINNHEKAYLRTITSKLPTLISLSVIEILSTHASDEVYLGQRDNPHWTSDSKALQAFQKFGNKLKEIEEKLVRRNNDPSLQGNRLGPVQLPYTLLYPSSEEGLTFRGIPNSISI", "test": "Effect on 15-LO catalysed oxidation of arachidonic acid", "type": "biochemical, soybean"}}}
{"smiles": "CCCCC/C=C\\C/C=C\\C/C=C\\C/C=C\\CCCC(CCC(=O)O)[N+](=O)[O-]", "note": "(stereo not shown) [Lx7, (a11-Z)-4-Nitrotricosa-8,11,14,17-tetraenoic acid]", "values": [{"measurement": "Neutrophil chemiluminescence response", "setting": "human neutrophils", "result": "marginal compared to 20:4n-6 and 22:6n-3"}, {"measurement": "Antimalarial activity (in words)", "setting": "[1]", "result": "did not have appreciable antimalarial activity"}, {"measurement": "Substrate for 5-LO", "setting": "5-LO", "result": "not for 5-LO"}, {"measurement": "Effect on 15-LO catalysed oxidation of AA", "setting": "15-LO", "result": "Substrate"}]}
